Earlier results as cited in US20240173371A1, “RHODIOLA CRENULATA COMPOSITIONS AND METHODS OF MAKING THE SAME” (NutriScience Innovations LLC, priority 2022, published 2024).

How the values were obtained:
[1] = tested on: CD3+T cells and CD4+T helper cells; conditions: Wistar male rats, supplementation
[2] = rats, oral, 20 and 40 mg/kg over two weeks
[3] = rats, oral, 20 and 40 mg/kg over two weeks; remark: listed apart in the source

SMILES: OC[C@H]1O[C@@H](OCCc2ccc(O)cc2)[C@H](O)[C@@H](O)[C@@H]1O [salidroside]
- CD4+T helper cells [1]: increased
- total CD3+T cells [1]: increased
- olfactory-bulbectomy-induced hyperactivity [2]: alleviated
- outcome of a forced swim test [3]: improved
